Assay results reported in patent publication US20090011052A1, “Anti-HIV medicinal herbs composition, preparation thereof and use of the same” (priority 2004, published 2009).

Experiments:
SIVmac251 [1] = assay: Blood CD4+ lymphocyte count in SIVmac251-infected Rhesus monkey; format: in vivo
Text: They were fed with commercial popped feeds.
Measurement of blood CD4^+ count: Blood samples were drawn from the animals before infection and 14, 28, 42 and 60 days after infection with SIVmac251 Ficoll lymphocyte separation fluid was adopted to isolate the peripheral lymphocytes. After tagging the anti-CD4 monoclonal antibody with direct fluorescence, the cells were counted on FACS machine to obtain the CD4^+ percentage. In combination with WBC count with DC of routine blood examination, the total count of blood CD4^+ lymphocytes was calculated. • 1.

SIVmac251 [2] = assay: Plasma viral load in SIVmac251-infected Rhesus monkey; conditions: within the dosing range
Text: Experiment animals: 5 females and 5 males Rhesus monkey as experimental animal with 4.5-5.5 Kg/each for a total of 10 were used, purchased from Primate Breeding Center, Research Institute of Experimental Animals, Chinese Academy of Medical Sciences. They were fed with commercial popped feeds. No abnormal physical examination was found before the experiment. Potential infections with SIV, SRV Type D and STLV-I were excluded by the serum IFA antibody test.
Each animal was intravenously infected with 1 ml virus solution equivalent to 3MID100 viral load.
Within each group, there were 3-4 animals with equal females and males. […] No drug treatment was offered for SIVmac251 infection control group.
Observation pre- and post-infection: Besides other pre-infection physical examinations, body weight and blood-drawing were made for each monkey (conducting all parameter tests). […] At the pre-determined timepoints, blood was drawn for the monkey to measure the plasma viral titer, blood CD4^+ count and antibody titre. […]
Plasma virus isolation: After the animals were infected with SIVmac251, to collect the blood samples were collected respectively at Days 7, 11, 14, 21, 28, 42, 60 and the plasma were separated by heparin anti-clotting. […] The viral titre was chosen for the sample with the lowest inoculation quantity but showing the typical patterns of cellular confluence. […]

## Cc1cn([C@H]2C[C@H](N=[N+]=[N-])[C@@H](CO)O2)c(=O)[nH]c1=O [AZT]
SIVmac251 [1]; 2 and 4 weeks post-infection
  CD4 cells spared of the viral attacks (protected): 35%
SIVmac251 [1]; 2 week infection
  CD4+ lymphocytes: 714.51
  CD4+ lymphocytes, Difference with control: 187.21
  CD4+ lymphocytes, Difference with control (%): (35.5%)
SIVmac251 [1]; 4 week
  CD4+ lymphocytes: 540.57
  CD4+ lymphocytes, Difference with control: 137.96
  CD4+ lymphocytes, Difference with control (%): (34.27%)
SIVmac251 [1]; 6 week
  CD4+ lymphocytes: 543.31
  CD4+ lymphocytes, Difference with control: 83.24
  CD4+ lymphocytes, Difference with control (%): (18.09%)
SIVmac251 [1]; 8 w
  CD4+ lymphocytes: 530.95
  CD4+ lymphocytes, Difference with control (%): (43.0%)
SIVmac251 [1]; Pre-experiment
  CD4+ lymphocytes: 959.86
SIVmac251 [2]
  inhibition rate upon SIV: over 90%
